Source: PubChem BioAssay (NCI)
“And” between values parts separate entries of the source, which are not always exact repeats. Identical values can stand only once.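 48-hour exposure; five concentrations; linearly interpolated endpoints. Here, GI50 denotes the concentration required for 50% inhibition of growth. TGI denotes the concentration required for complete inhibition of growth.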

What was measured:
Test in all cases: NCI-60 cell line screen, 48 h
NCI-H23 lung = test system: NCI-H23 lung
SK-MEL-5 melanoma = test system: SK-MEL-5 melanoma
HCT-15 colon = test system: HCT-15 colon
SF-295 CNS = test system: SF-295 CNS
UACC-257 melanoma = test system: UACC-257 melanoma
TK-10 renal = test system: TK-10 renal
LOX IMVI melanoma = test system: LOX IMVI melanoma
K-562 leukemia = test system: K-562 leukemia
HCT-116 colon = test system: HCT-116 colon
T-47D breast = test system: T-47D breast

| Structure (SMILES) | TGI (NCI-H23 lung) | TGI (SK-MEL-5 melanoma) | TGI (HCT-15 colon) | TGI (SF-295 CNS) | TGI (UACC-257 melanoma) | TGI (TK-10 renal) | TGI (LOX IMVI melanoma) | TGI (K-562 leukemia) | TGI (HCT-116 colon) | GI50 (UACC-257 melanoma) | GI50 (TK-10 renal) | GI50 (HCT-116 colon) | GI50 (K-562 leukemia) | GI50 (NCI-H23 lung) | GI50 (SK-MEL-5 melanoma) | GI50 (HCT-15 colon) | GI50 (SF-295 CNS) | GI50 (LOX IMVI melanoma) | GI50 (T-47D breast) | TGI (T-47D breast) |
| --- | --- | --- | --- | --- | --- | --- | --- | --- | --- | --- | --- | --- | --- | --- | --- | --- | --- | --- | --- | --- |
| Cc1cc(N(CCC#N)CCC#N)ccc1N=Nc1ccc(S(N)(=O)=O)cc1 | > 100 µM | > 100 µM | > 100 µM | > 100 µM | > 100 µM | > 100 µM | > 100 µM | > 100 µM | – | – | – | – | – | – | – | – | – | – | – | – |
| CCCCCCCCCCCC(=O)OCCOCCOCCOCCOCCOCc1ccccc1 | > 100 µM | > 100 µM | > 100 µM | > 100 µM | > 100 µM | > 100 µM | > 100 µM | > 100 µM | > 100 µM | – | – | – | – | – | – | – | – | – | – | – |
| Cc1c(C(=O)CC(=O)C(=O)Nc2ccccc2C(F)(F)F)[n+](=O)c2ccccc2n1[O-] | 44.3 µM | 30.4 µM | 44.4 µM | > 100 µM | 36.2 µM | > 100 µM | 63.8 µM | 93.2 µM | 28.3 µM | – | – | – | – | – | – | – | – | – | – | – |
| CCCCCCCCCCCCCC(=O)OC(/C=C/C(C)C)C(O)C(O)C(OC)C(=O)NC1CCCCN(C)C1=O (stereo not drawn) | 6.48 µM and > 49 µM | 5.92 µM and > 49 µM | 7.55 µM and > 49 µM | 5.97 µM and > 49 µM | 18.3 µM and > 49 µM | 32.5 µM and > 49 µM | 6.53 µM and > 49 µM | 13.4 µM and > 49 µM | 5.46 µM and > 49 µM | > 49 µM | > 49 µM | > 49 µM | > 49 µM | – | – | – | – | – | – | – |
| CC1(C)C(=O)/C=C\C(=O)C(C)(C)C2=CC=C(O2)C(C)(C)C(=O)/C=C\C(=O)C(C)(C)C2=CC=C1O2 | > 100 µM | – | > 100 µM | > 100 µM | > 100 µM | > 100 µM | > 100 µM | > 100 µM | > 100 µM | – | – | – | – | – | – | – | – | – | – | – |
| COc1cc2c(cc1OCCCCN1CCN(CC(=O)Nc3ccc(Cl)cc3C(=O)c3ccccc3Cl)CC1)N=CC1CCCN1C2=O (stereo not drawn) | 0.446 µM | 0.333 µM | 2.3 µM | 0.509 µM | 0.575 µM | 0.841 µM | 0.442 µM | 2.82 µM | 0.664 µM | 0.2 µM | 0.311 µM | 0.225 µM | 0.208 µM | 0.206 µM | 0.183 µM | 0.923 µM | 0.237 µM | 0.203 µM | – | – |
| Cc1cc(NS(=O)(=O)c2ccc(Nc3c4ccccc4nc4c(C(=O)N5CCN(CCOS(C)(=O)=O)CC5)cccc34)cc2)no1 | > 100 µM | > 100 µM | > 100 µM | > 100 µM | > 100 µM | > 100 µM | – | > 100 µM | > 100 µM | – | – | – | – | – | – | – | – | – | – | – |
| NC(=O)NO.O.O.O.O.O.O.O.O.O.O.O.[Ge].[Ge].[Ge].[Ge].[Ge].[O]=[Ge].[O]=[Ge].[O]=[Ge].[O]=[Ge].[O]=[Ge][OH] | > 100 µM | > 100 µM | > 100 µM | > 100 µM | > 100 µM | > 100 µM | > 100 µM | > 100 µM | > 100 µM | – | – | – | – | – | – | – | – | – | – | – |
| Cc1nc2c(ccc3ncccc32)[nH]1 | > 100 µM | > 100 µM | > 100 µM | > 100 µM | > 100 µM | > 100 µM | > 100 µM | > 100 µM | – | – | – | – | – | – | – | – | – | – | – | – |
| CC1CCc2nc[nH]c(=O)c21 (stereo not drawn) | > 100 µM | > 100 µM | > 100 µM | – | – | > 100 µM | > 100 µM | > 100 µM | > 100 µM | – | > 100 µM | > 100 µM | > 100 µM | > 100 µM | > 100 µM | > 100 µM | – | > 100 µM | > 100 µM | > 100 µM |
| Cc1c(C(=O)C/C(=N/NC(=O)c2ccccc2O)C(=O)Nc2ccccc2C(C)C)[n+](=O)c2ccccc2n1[O-] | 52.8 µM | > 100 µM | > 100 µM | > 100 µM | > 100 µM | > 100 µM | > 100 µM | > 100 µM | > 100 µM | – | – | – | – | – | – | – | – | – | – | – |
| C=CCO[C@H]1CO[C@H]2[C@@H]1OC[C@@H]2Oc1ccc(Nc2ccnc(Nc3ccc(O[C@H]4CO[C@H]5[C@@H]4OC[C@@H]5OCC=C)c(Cl)c3)n2)cc1Cl | 3.71 µM | 2.8 µM | 3.06 µM | 3.49 µM | 3.69 µM | 3.63 µM | 3.31 µM | 1.9 µM | 3.44 µM | 1.83 µM | 1.86 µM | 1.82 µM | 0.378 µM | 1.79 µM | 1.46 µM | 1.48 µM | 1.85 µM | 1.76 µM | – | – |
| OCC1=CC(NC2CC(CO)C(O)C(O)C2O)C(O)C(O)C1O (stereo not drawn) | > 100 µM | – | > 100 µM | > 100 µM | > 100 µM | > 100 µM | > 100 µM | > 100 µM | > 100 µM | – | – | – | – | – | – | – | – | – | – | – |
| COC1/C=C/OC2(C)Oc3c(C)c(O)c4c(O)c(c(/C=N/Nc5ccc([N+](=O)[O-])cc5[N+](=O)[O-])c(O)c4c3C2=O)NC(=O)C(C)=C/C=C/C(C)C(O)C(C)C(O)C(C)C(OC(C)=O)C1C (stereo not drawn) | 7.02 µM | 3.75 µM | 31.1 µM | 20.1 µM | 5.58 µM | – | 2.32 µM | – | 1.9 µM | 1.48 µM | – | 0.955 µM | – | 1.7 µM | 1.29 µM | 5.86 µM | 5.64 µM | 1.03 µM | 2.07 µM | > 50 µM |
| CCC[CH2][Sn]([CH2]CCC)([S]c1cccc2cccnc12)[S]c1cccc2cccnc12 | 0.422 µM | 0.534 µM | 0.411 µM | 1.39 µM | – | 0.552 µM | 0.359 µM | 0.611 µM | 0.303 µM | – | 0.249 µM | 0.155 µM | 0.0642 µM | 0.161 µM | 0.201 µM | 0.176 µM | 0.404 µM | 0.175 µM | – | – |
| CCOC(=O)CCC1(C(=O)OCC)CCCCC1=O (stereo not drawn) | > 100 µM | > 100 µM | – | > 100 µM | > 100 µM | > 100 µM | > 100 µM | > 100 µM | > 100 µM | – | – | – | – | – | – | – | – | – | – | – |
| Cc1ccc(S(=O)(=O)OC[C@@H]2CO2)cc1 | > 100 µM | > 100 µM | > 100 µM | – | > 100 µM | > 100 µM | > 100 µM | > 100 µM | > 100 µM | – | – | – | – | – | – | – | – | – | – | – |
| COc1cc2cc(OC)c3cc4c(cc3c2c(OC)c1OC)OCO4 | > 81.2 µM | > 57.2 µM | > 51.1 µM | > 76 µM | > 100 µM | > 84.4 µM | 31 µM | 48 µM | > 84.4 µM | – | – | – | – | – | – | – | – | – | – | – |
